Data as given in US6821993B1, “Triazepine derivatives as neurotrophic agents” (Ortho-McNeil Pharmaceutical, Inc., priority 2001, dated 2004).

Tests used:
[1] = test system: Primary Rat Hippocampal Cells; experiment: Neurite outgrowth assay in primary rat hippocampal cells; format: cell-based; details: MAP-2 immunofluorescence, embryonic day 18 rat hippocampal cells, 7 days in culture
Method: Hippocampal cells were dissected from the brains of embryonic day 18 rat pups and dissociated with trypsin (1 mg/mL) and trituration. Cells were seeded at 30,000 cells/well in 96-well plates filled with 100 μL MEM and 10% FBS. At 7 days in culture, cells were fixed with 4% paraformaldehyde and immuno-fluorescence is performed.
(§1) Cultures were incubated with normal horse serum (1:50; Vector Labs) or about 20 min, rinsed and then incubated with primary antibody, microtubule associated-protein 2 (anti-mouse MAP-2; 1:1000; Chemicon) for about 2 h at about RT. Following primary antibody, cultures were rinsed and incubated with fluorescein anti-mouse IgG (rat absorbed; 1:50; Vector Labs) for about 1 h. After fluorescein incubation, the cultures were rinsed and read in PBS on a fluorescent plate reader (excitation: 485 nm; emission: 530 nm). A compound was regarded as active if the neurite outgrowth response is greater than the mean DMSO-treated control response on the same plate. The response to test compound was reported as percent of DMSO-treated control. The signal-to-noise separation is consistent: the fluorescence from DMSO control wells is at least twofold greater than blank wells.

[2] = test system: M17 human neuroblastoma cells; experiment: Neurite outgrowth assay in human M17 neuroblastoma cells; format: cell-based; details: MAP-2 immunofluorescence
Method: M17 human neuroblastoma cells were cultured in 1:1 ratio of EMEM and Ham's F12 with 1×NEAA and 10% FBS. The culture media contained 1×PSN antibiotic and was exchanged every other day, and the cells were passed in log phase near confluence.
as §1

[3] = test system: Dorsal Root Ganglion (DRG); experiment: Dorsal Root Ganglion (DRG) culture neurite outgrowth; format: cell-based, rat; details: neurite outgrowth from DRG of newborn or 1-day-old CD rats; test compound 50-250 nM; examined on days 1-5
Method: DRG were dissected from newborn or 1-day-old CD rats and placed into PBS on ice. After rinsing twice with sterile plating medium, DRG were transferred to empty wells of a 6-well plate coated with polyornithine/laminin (Becton Dickinson Labware) using #7 curved forceps. Three ml/well of plating medium were then added very gently, so as not to disturb the DRG plating medium is Leibovitz's L-15 medium (Gibco), plus 0.6% glucose, 33 mM KCl, 10% FCS, 10 mM Hepes and penicillin/streptomycin/glutamine. After overnight incubation at about 37° C. in 5% CO2, this medium was replaced with 3 mL/well of assay medium [Leibovitz's L-15 medium plus 0.6% glucose, 1% FCS, 1% N-2 supplement (Gibco), 10 μM ara-C, 10 mM Hepes, and penicillin/streptomycin/glutamine] containing either vehicle (DMSO, 1/200,000), positive control (2-4 ng/mL NGF) or test compound (50-250 nM). All media were prepared fresh daily. DRG were microscopically examined for neurite outgrowth on days 1-5.

Compound	Rat Hippocampal Cell Response [1]	M17 Cell Response [2]	DRG [3]
O=C1[C@@H]2CSCN2C(=O)C(c2cccs2)=NN1CCC(c1ccccc1)c1ccccc1 [(6), 1H,7H-thiazolo[4,3-d][1,2,5]triazepine-1,5(2H)-dione, 2-(3,3-diphenylpropyl)-9,9a-dihydro-4-(2-thienyl)-, (9aR)-]	105% of DMSO-treated control	<100% of DMSO-treated control	–
CCC(C)(C)C1=NN(CCCc2ccccc2)C(=O)[C@@H]2CCCN2C1=O [(2), 1H-pyrrolo[2,1-d][1,2,5]triazepine-1,5(2H)-dione, 4-(1,1-dimethylpropyl)-7,8,9,9a-tetrahydro-2-(3-phenylpropyl)-, (9aS)-]	<100% of DMSO-treated control	<100% of DMSO-treated control	–
CCC(C)(C)C1=NNC(=O)C2CCCCN2C1=O (stereo not shown) [(4)]	140% of DMSO-treated control	<100% of DMSO-treated control	–
CCC(C)(C)C1=NN(CCCc2cccnc2)C(=O)[C@@H]2CCCN2C1=O [(3), 1H-pyrrolo[2,1-d][1,2,5]triazepine-1.5(2H)-dione, 4-(1,1-dimethylpropyl)-7,8,9,9a-tetrahydro-2-[3-(3-pyridinyl)propyl]-, (9aS)-]	145% of DMSO-treated control	<100% of DMSO-treated control	–
CCC(C)(C)C1=NNC(=O)[C@@H]2CCCN2C1=O [(1), 1H-pyrrolo[2,1-d][1,2,5]triazepine-1,5(2H)-dione, 4-(1,1-dimethylpropyl)-7,8,9,9a-tetrahydro-, (9aS)-]	123% of DMSO-treated control	115% of DMSO-treated control	+ (An experiment was considered positive (+) if the instant compound induced neurites of ≧1 diameter of the DRG)
O=C1NN=C(c2cccs2)C(=O)N2CSC[C@@H]12 [(5), 1H,7H-thiazolo[4,3-d][1,2,5]triazepine-1,5(2H)-dione, 9,9a-dihydro-4-(2-thienyl)-, (9aR)-]	105% of DMSO-treated control	<100% of DMSO-treated control	–
